Experimental data taken from patent US11753408B2, “Compounds and method for blocking transmission of malarial parasite” (The United States of America, as represented by the …, priority 2016, dated 2023).
Where two headings read alike, the source gives them in different places.

Assays:
[1] = tested on: Asexual parasites of P. falciparum strain 3D7; assay: In vitro drug activity on asexual parasites (SYBR Green assay); format: cell-based, Plasmodium falciparum
Method: Cell culture. Asexual parasites of P. falciparum strain 3D7 were cultured as described previously [Trager W, et al., Journal of Parasitology 2005, 91: 484-486], Stage III-V gametocytes were selected and enriched with 3-day treatment with 50 mM N-acetylglucosamine (NAG) and the following Percoll density gradient centrifugation after gametocyte production [Tanaka T Q, et al., Molecular and Biochemical Parasitology, 2011, 111: 160-163], Gametocytes of HB3 and Dd2 strains were produced and then set up for assay in a similar process. HepG2 cells (ATCC, cat. no. 77400) were cultured in 175-cm^2 tissue culture flasks with 30 ml growth medium at 37° C. in a 5% CO2 humidified atmosphere. Growth medium was made with Dulbecco's Modified Eagle Medium with 10% fetal bovine serum (FBS). Growth medium was replaced every other day and cells were passed at 75% confluence.
Asexual parasites of P. falciparum strain 3D7 were cultured as described previously (Trager, W. et al., J. Parasitol. 2005, 91(3): 484-486). Drug activity on asexual stage parasites was tested using a SYBR Green assay as described previously (Eastman, R. T. et al., Antimicrob. Agents Chemother. 2013, 57(1): 425-435; Smilkstein, M. et al., Antimicrob. Agents Chemother. 2004, 48(5): 1803-1806). Briefly, parasites were diluted to 0.5% parasitemia in complete culture medium with 2% hematocrit and drugs diluted in DMSO (≤0.5%) and were loaded into a 96-well plate (200 μl/well). No drug and RBC alone wells were included as positive and background controls, respectively, and each testing condition was examined in duplicated. After 72 h incubation under the standard culture condition and a freeze-thaw lysis step at −80° C. and room temperature, 100 μl/well of lysis buffer containing SYBR Green I was added to the parasite culture and incubated for 30 min at room temperature. The fluorescence of each well was measured at 520 nm following excitation at 490 nm using a FLUOstar Optima™ microplate reader (BMG Labtech).

mTOR = mTOR (Homo sapiens, UniProt P42345); assay: mTOR activity (no method described); format: biochemical
[2] = Microsomal stability (rat); format: in vitro ADME; conditions: rat microsomes
Solubility at pH 7.4 = format: physicochemical
PAMPA permeability = format: in vitro ADME; conditions: PAMPA
[3] = P. falciparum 3D7 asexual parasites, 72 h, SYBR Green

Row | SMILES | EC50 [1] | mTOR (mTOR) | Microsomal Stability (rat) T1/2 [2] | Sol @ pH 7.4 (Solubility at pH 7.4) | EC50 [1, 3] | Sol @ pH 7.4 (ug/mL) (Solubility at pH 7.4) | PAMPA Permeability (×10^6 cm/s) (PAMPA permeability)
1 | CCN(CC)CCCNC(=O)c1ccc(-n2c(=O)ccc3cnc4ccc(-c5ccc(Cl)cc5)cc4c32)cc1 [Compound 266] | 58.3 nM | 3.013 µM | 2.8 min | 0 ug/mL | – | – | –
2 | O=C(NCCCN1CCCC1)c1ccc(-n2c(=O)ccc3cnc4ccc(-c5ccc(F)cc5)cc4c32)cc1 [Compound 267] | 58.1 nM | 3.878 µM | 8 min | 0 ug/mL | – | – | –
3 | O=C(NCCN1CCOCC1)c1ccc(-n2c(=O)ccc3cnc4ccc(-c5ccc(F)cc5)cc4c32)cc1 [Compound 268] | 211 nM | 4.985 µM | 2 min | 0 ug/mL | – | – | –
4 | NC1(c2ccc(-c3ccc4ncc5ccc(=O)n(-c6ccc(C(=O)N7CCN(CCO)CC7)cc6)c5c4c3)cc2)CC1 [Compound 269] | 390 nM | 3.874 µM | >30 min | 0 ug/mL | – | – | –
5 | CN(C)CCN1CCN(C(=O)c2ccc(-n3c(=O)ccc4cnc5ccc(-c6ccc(C7(N)CC7)cc6)cc5c43)cc2)CC1 [Compound 270] | 348 nM | 3.254 µM | >30 min | 0 ug/mL | – | – | –
6 | N#Cc1cc(-n2c(=O)ccc3cnc4ccc(-c5ccc(Cl)cc5)cc4c32)ccc1C(=O)N1CCOCC1 [Compound 271] | 613 nM | 16.14 µM | 14 min | 0 ug/mL | – | – | –
7 | COc1cc(C(=O)NC2CC2)ccc1-n1c(=O)ccc2cnc3ccc(-c4ccc(Cl)c(O)c4)cc3c21 [Compound 273] | 18.9 nM | 4.164 µM | >30 min | <1 ug/mL | – | – | –
8 | O=C(c1ccc(-n2c(=O)ccc3c(O)nc4ccc(-c5ccc(Cl)cc5)cc4c32)cc1)N1CCOCC1 [Compound 294] | 2050 nM | 4.586 µM | 8.4 min | 0 ug/mL | – | – | –
9 | O=C(NC1CC1)c1ccc(-n2c(=O)ccc3cnc4ccc(-c5ccc(F)cc5)cc4c32)cn1 [Compound 301] | 206 nM | 50 µM | >30 min | <1 ug/mL | – | – | –
10 | O=C(c1ccc(-n2c(=O)ccc3cnc4ccc(-c5ccc(Cl)cc5)cc4c32)cc1)N1CCC(O)CC1 [Compound 302] | 16.4 nM | 1.595 µM | 12 min | <1 ug/mL | – | – | –
11 | O=C(NO)c1ccc(-n2c(=O)ccc3cnc4ccc(-c5ccc(Cl)cc5)cc4c32)cc1 [Compound 303] | 6.45 nM | 0.2376 µM | >30 min | 0.7 ug/mL | – | – | –
12 | NCCCN1Cc2cc(-n3c(=O)ccc4cnc5ccc(-c6ccc(Cl)cc6)cc5c43)ccc2C1=O [Compound 343] | – | – | >30 min | – | 20.9 nM | 13.4 ug/mL | <2.5 ×10^6 cm/s
13 | CN(C)Cc1ccc(-c2ccc3ncc4ccc(=O)n(-c5ccc6c(c5)C(=O)N(C)C6=O)c4c3c2)cc1 [Compound 352] | – | – | – | – | 18800 nM | >72.0 ug/mL | 343.6 ×10^6 cm/s
14 | CC(C)(C)OC(=O)CN1Cc2cc(-n3c(=O)ccc4cnc5ccc(-c6ccc(Cl)cc6)cc5c43)ccc2C1=O [Compound 364] | – | – | >30 min | – | 4580 nM | 2.7 ug/mL | 75.9 ×10^6 cm/s
15 | O=C1NC(=O)c2cc(-n3c(=O)ccc4cnc5ccc(-c6ccc(Cl)cc6)cc5c43)ccc21 [Compound 379] | – | – | 23 min | – | 2960 nM | <1 ug/mL | 31 ×10^6 cm/s
16 | O=C1NCc2cc(-n3c(=O)ccc4cnc5ccc(-c6ccc(OC7CCNCC7)cc6)cc5c43)ccc21 [Compound 380] | – | – | >30 min | – | 310 nM | 2.6 ug/mL | <10.7 ×10^6 cm/s
17 | CC(N)c1ccc(-c2ccc3ncc4ccc(=O)n(-c5ccc6c(c5)CNC6=O)c4c3c2)cc1 (stereo not drawn) [Compound 381] | – | – | >30 min | – | – | 44.9 ug/mL | 4 ×10^6 cm/s
